These results are taken from article PMC5667506, “Potent and selective inhibition of SH3 domains with dirhodium metalloinhibitors” (Chemical Science, 2015).

In assay [1] the target is T1, Src SH3 domain (Homo sapiens, UniProt P12931).
T1 construct: fyn, yes, lck, and src SH3 protein domains were prepared following published procedures; made in house
In words: ITC binding to Src SH3 domain. How it is done:
All chemical reagents were purchased from Sigma-Aldrich and were used without further purification.
Peptide synthesis. All peptides were synthesized manually or with an AAPPTEC APEX 396 Automated Multipeptide Synthesizer using standard solid-phase Fmoc protocols.1,2 Peptides were prepared as C-terminal amides using Rink amide MBHA resin (AAPPTEC) and were acetylated at the N-terminus prior to cleavage from the resin. Peptides and metallopeptides were purified by reverse-phase HPLC.
HPLC separation. Reverse-phase HPLC was performed on a Shimadzu CBM-20A instrument with Phenomenex Jupiter 4μ Proteo 90A (250 × 15 mm preparative) and Phenomenex Jupiter 4μ Proteo 90A (250 × 4.6 mm analytical) columns. The columns were eluted with a gradient of acetonitrile in water (10-90%) (flow rates of 8 mL/min and 1 mL/min for preparative and analytical columns, respectively). Trifluoroacetic acid (0.1%) was added to all eluents.
FPLC separation. Analytical FPLC was performed on an ÄKTA instrument with Superdex Peptide PE 7.5/300 column. The column was equilibrated with buffer (150 mM NaCl, 50 mM Tris, pH 7.0) at flow rate of 0.2 mL/min.
ITC analysis. ITC experiments were carried out on a VP-ITC instrument (MicroCal) at 25 °C. Titrations of 275 μM peptide into 18 μM SH3 domain proteins were used for all titrations, except for the titration of S2ERh into Lyn SH3 domain, where the lower concentrations of 69 µM S2ERh peptide and 4 µM Lyn SH3 were used to attain a c-value for the titration within the accepted limts for ITC experiments ([…]).3
Heats of dilutions were measured independently for each experiment by titrating 275 μM peptide into buffer (20 mM phosphate buffer, pH 7, 150 mM NaCl, 1 mM EDTA). All experimental data were fitted using a one set of sites binding model in Origin software (MicroCal) except for the data with Hck SH3 domain. With Hck only, the non-peptide specific binding of dirhodium tetraacetate to Hck SH3 domain could not be treated as negligible, despite the very weak interaction (88 µM), due to the larger enthalpy contribution observed for non-specific binding to this SH3 domain, so the titrations of peptide into Hck were fitted using a 2 set of sites binding model where the stoichiometry for the second set of sites was fixed at 2.0. […]
Mass spectrometry. ESI-MS was performed on a Bruker Daltonics micrOTOF instrument.
Known compounds and proteins. Several metallopeptides (S2ERh, L3ERh, R5ERh, and 13DRh) were reported previously and were prepared by known protocols;4 alkyne-diazo 3,5 3-azido-7-hydroxycoumarin6 were synthesized following reported procedures; fyn, yes, lck, and src SH3 protein domains were prepared following published procedures.5 Abl, hck, and lyn SH3 domain plasmids were adapted from the previously reported genes;7 the gene templates were obtained from Addgene, ID

For assay [2], the target named is Fyn SH3 domain. Also on record: method as in PMID 22621321. The conditions noted are these: Fyn SH3, ITC; previously reported ref 52; cited from earlier work.

In turn, AcVELARRPLPPLPN-NH2 [S2E^Rh] gave a Stoichiometry in assay [1] of 1.1. For the same substance, in assay [1] (25 °C), the “-TΔS” value was 7.2 kcal/mol, binding was characterised by a dissociation constant (Kd) of 327 nM, the ΔG is -8.8 kcal/mol and the ΔH was -16.0 kcal/mol. In assay [2], the Kd was 769 nM.
